Patent US20110039721A1, “METHOD FOR PREDICTION ABOUT CARCINOGENICITY OF SUBSTANCE IN RODENT” (Chemicals Evaluation and Research Institute, priority 2007, published 2011)
Like-named read-outs stand apart in the source and are kept apart here.

Legend:
[1] = test system: mRNA expressed from the genes (A) to (D) in rat liver; experiment: Behavior of genes (mRNA expression level, oligo-DNA microarray) in rat liver after 28-day oral administration; assay type: in vivo
Summary of the method: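 Liver mRNA levels were compared with matched vehicle groups, with a shift of at least 1.5-fold up or down deemed significant unless its direction disagreed with other carcinogens. Test substances were dosed orally by gavage daily for 28 days to 5-week-old male F344 rats, four per group.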

[2] = test system: rodent; conditions: cited from earlier work
[3] = Gene No. 154, Rn.185941, group (C)
[4] = Gene No. 533, Rn.106184, group (C)
[5] = Gene No. 725, Rn.108075, group (C)
[6] = Gene No. 813, Rn.201760, group (C)
[7] = Gene No. 893, Rn.164817, group (C)
[8] = Gene No. 1119, Rn.9757, group (C)
[9] = Gene No. 1131, Rn.144946, group (C)
[10] = Gene No. 1163, Rn.11766, group (C)
[11] = Gene No. 1334, Rn.120914, group (C)
[12] = Gene No. 1494, Rn.1430, group (B)
[13] = Gene No. 1562, Rn.14744, group (C)
[14] = Gene No. 1741, Rn.1647, group (C)
[15] = Gene No. 1993, Rn.18728, group (C)
[16] = Gene No. 2026, Rn.167075, group (A)
[17] = Gene No. 2045, Rn.19329, group (B)
[18] = Gene No. 2203, Rn.21240, group (B)
[19] = Gene No. 2494, Rn.23969, group (C)
[20] = Gene No. 2546, Rn.24561, group (C)
[21] = Gene No. 3776, Rn.43232, group (C)
[22] = Gene No. 3929, Rn.4620, group (C)
[23] = Gene No. 4095, Rn.119024, group (C)
[24] = Gene No. 4218, Rn.167075, group (A)
[25] = Gene No. 4846, Rn.144554, group (A)
[26] = Gene No. 4973, Rn.118529, group (C)
[27] = Gene No. 5600, Rn.9836, group (A)
[28] = Gene No. 5634, Rn.9862, group (C)
[29] = Gene No. 5726, Rn.9939, group (D)
[30] = Gene No. 5878, Rn.143213, group (C)
[31] = Gene No. 6026, Rn.167685, group (C)
[32] = Gene No. 6182, Rn.5834, group (A)
[33] = Gene No. 6303, Rn.123063, group (C)
[34] = Gene No. 6620, Rn.120914, group (C)
[35] = Gene No. 6742, Rn.9779, group (C)
[36] = (C), Unigene Rn.120914, defined direction +, rat liver, oral once daily 28 days

## O=[N+]([O-])c1ccc2ccc3cccc4ccc1c2c34 [TS064, 1-Nitropyrene]
[1]; [3]
  Behavior of gene caused by administration of chemical substance: −
[1]; [4]
  Behavior of gene caused by administration of chemical substance: −
[1]; [5]
  Behavior of gene caused by administration of chemical substance: −
[1]; [6]
  Behavior of gene caused by administration of chemical substance: −
[1]; [7]
  Behavior of gene caused by administration of chemical substance: −
[1]; [8]
  Behavior of gene caused by administration of chemical substance: −
[1]; [9]
  Behavior of gene caused by administration of chemical substance: −
[1]; [10]
  Behavior of gene caused by administration of chemical substance: −
[1]; [11]
  Behavior of gene caused by administration of chemical substance: −
[1]; [12]
  Behavior of gene caused by administration of chemical substance: −
[1]; [13]
  Behavior of gene caused by administration of chemical substance: −
[1]; [14]
  Behavior of gene caused by administration of chemical substance: −
[1]; [15]
  Behavior of gene caused by administration of chemical substance: −
[1]; [16]
  Behavior of gene caused by administration of chemical substance: −
[1]; [17]
  Behavior of gene caused by administration of chemical substance: −
[1]; [18]
  Behavior of gene caused by administration of chemical substance: +
[1]; [19]
  Behavior of gene caused by administration of chemical substance: −
[1]; [20]
  Behavior of gene caused by administration of chemical substance: −
[1]; [21]
  Behavior of gene caused by administration of chemical substance: −
[1]; [22]
  Behavior of gene caused by administration of chemical substance: −
[1]; [23]
  Behavior of gene caused by administration of chemical substance: −
[1]; [24]
  Behavior of gene caused by administration of chemical substance: −
[1]; [25]
  Behavior of gene caused by administration of chemical substance: −
[1]; [26]
  Behavior of gene caused by administration of chemical substance: −
[1]; [27]
  Behavior of gene caused by administration of chemical substance: −
[1]; [28]
  Behavior of gene caused by administration of chemical substance: −
[1]; [29]
  Behavior of gene caused by administration of chemical substance: −
[1]; [30]
  Behavior of gene caused by administration of chemical substance: −
[1]; [31]
  Behavior of gene caused by administration of chemical substance: −
[1]; [32]
  Behavior of gene caused by administration of chemical substance: −
[1]; [33]
  Behavior of gene caused by administration of chemical substance: −
[1]; [34]
  Behavior of gene caused by administration of chemical substance: −
[1]; [35]
  Behavior of gene caused by administration of chemical substance: −
[2]; classification C+/C−
  Carcinogenicity: C+

## CC(N)=O [TS067, Acetamide]
[1]; (A), Unigene Rn.144554, defined direction +, rat liver, oral once daily 28 days
  Behavior of gene caused by administration of chemical substance, Gene No. 4846: +
[1]; (A), Unigene Rn.167075, defined direction +, rat liver, oral once daily 28 days, significant = 1.5 times or more or 1/1.5 or less of control
  Behavior of gene caused by administration of chemical substance, Gene No. 4218: −
[1]; (A), Unigene Rn.167075, defined direction −, rat liver, oral once daily 28 days
  Behavior of gene caused by administration of chemical substance, Gene No. 2026: +
[1]; (A), Unigene Rn.5834, defined direction +, rat liver, oral once daily 28 days
  Behavior of gene caused by administration of chemical substance, Gene No. 6182: −
[1]; (A), Unigene Rn.9836, defined direction +, rat liver, oral once daily 28 days
  Behavior of gene caused by administration of chemical substance, Gene No. 5600: −
[1]; (B), Unigene Rn.1430, defined direction −, rat liver, oral once daily 28 days
  Behavior of gene caused by administration of chemical substance, Gene No. 1494: −
[1]; (B), Unigene Rn.19329, defined direction +, rat liver, oral once daily 28 days
  Behavior of gene caused by administration of chemical substance, Gene No. 2045: −
[1]; (B), Unigene Rn.21240, defined direction +, rat liver, oral once daily 28 days
  Behavior of gene caused by administration of chemical substance, Gene No. 2203: −
[1]; (C), Unigene Rn.106184, defined direction +, rat liver, oral once daily 28 days
  Behavior of gene caused by administration of chemical substance, Gene No. 533: +
[1]; (C), Unigene Rn.108075, defined direction −, rat liver, oral once daily 28 days
  Behavior of gene caused by administration of chemical substance, Gene No. 725: −
[1]; (C), Unigene Rn.11766, defined direction +, rat liver, oral once daily 28 days
  Behavior of gene caused by administration of chemical substance, Gene No. 1163: −
[1]; (C), Unigene Rn.118529, defined direction −, rat liver, oral once daily 28 days
  Behavior of gene caused by administration of chemical substance, Gene No. 4973: −
[1]; (C), Unigene Rn.119024, defined direction −, rat liver, oral once daily 28 days
  Behavior of gene caused by administration of chemical substance, Gene No. 4095: −
[1]; [36]
  Behavior of gene caused by administration of chemical substance, Gene No. 1334: −
  Behavior of gene caused by administration of chemical substance, Gene No. 6620: −
[1]; (C), Unigene Rn.123063, defined direction −, rat liver, oral once daily 28 days
  Behavior of gene caused by administration of chemical substance, Gene No. 6303: +
[1]; (C), Unigene Rn.143213, defined direction −, rat liver, oral once daily 28 days
  Behavior of gene caused by administration of chemical substance, Gene No. 5878: −
[1]; (C), Unigene Rn.144946, defined direction −, rat liver, oral once daily 28 days
  Behavior of gene caused by administration of chemical substance, Gene No. 1131: −
[1]; (C), Unigene Rn.14744, defined direction −, rat liver, oral once daily 28 days
  Behavior of gene caused by administration of chemical substance, Gene No. 1562: −
[1]; (C), Unigene Rn.1647, defined direction −, rat liver, oral once daily 28 days
  Behavior of gene caused by administration of chemical substance, Gene No. 1741: −
[1]; (C), Unigene Rn.164817, defined direction +, rat liver, oral once daily 28 days
  Behavior of gene caused by administration of chemical substance, Gene No. 893: −
[1]; (C), Unigene Rn.167685, defined direction −, rat liver, oral once daily 28 days
  Behavior of gene caused by administration of chemical substance, Gene No. 6026: −
[1]; (C), Unigene Rn.185941, defined direction −, rat liver, oral once daily 28 days
  Behavior of gene caused by administration of chemical substance, Gene No. 154: +
[1]; (C), Unigene Rn.18728, defined direction −, rat liver, oral once daily 28 days
  Behavior of gene caused by administration of chemical substance, Gene No. 1993: −
[1]; (C), Unigene Rn.201760, defined direction +, rat liver, oral once daily 28 days
  Behavior of gene caused by administration of chemical substance, Gene No. 813: −
[1]; (C), Unigene Rn.23969, defined direction +, rat liver, oral once daily 28 days
  Behavior of gene caused by administration of chemical substance, Gene No. 2494: −
[1]; (C), Unigene Rn.24561, defined direction −, rat liver, oral once daily 28 days
  Behavior of gene caused by administration of chemical substance, Gene No. 2546: −
[1]; (C), Unigene Rn.43232, defined direction −, rat liver, oral once daily 28 days
  Behavior of gene caused by administration of chemical substance, Gene No. 3776: −
[1]; (C), Unigene Rn.4620, defined direction +, rat liver, oral once daily 28 days
  Behavior of gene caused by administration of chemical substance, Gene No. 3929: −
[1]; (C), Unigene Rn.9757, defined direction +, rat liver, oral once daily 28 days
  Behavior of gene caused by administration of chemical substance, Gene No. 1119: −
[1]; (C), Unigene Rn.9779, defined direction +, rat liver, oral once daily 28 days
  Behavior of gene caused by administration of chemical substance, Gene No. 6742: −
[1]; (C), Unigene Rn.9862, defined direction −, rat liver, oral once daily 28 days
  Behavior of gene caused by administration of chemical substance, Gene No. 5634: −
[1]; (D), Unigene Rn.9939, defined direction −, rat liver, oral once daily 28 days
  Behavior of gene caused by administration of chemical substance, Gene No. 5726: −
[2]; in vivo
  Carcinogenicity: C+

## Cc1ccccc1[N+](=O)[O-] [TS087, o-Nitrotoluene]
[1]; [3]
  Behavior of gene caused by administration of chemical substance: −
[1]; [4]
  Behavior of gene caused by administration of chemical substance: +
[1]; [5]
  Behavior of gene caused by administration of chemical substance: +
[1]; [6]
  Behavior of gene caused by administration of chemical substance: −
[1]; [7]
  Behavior of gene caused by administration of chemical substance: −
[1]; [8]
  Behavior of gene caused by administration of chemical substance: −
[1]; [9]
  Behavior of gene caused by administration of chemical substance: −
[1]; [10]
  Behavior of gene caused by administration of chemical substance: −
[1]; [11]
  Behavior of gene caused by administration of chemical substance: −
[1]; [12]
  Behavior of gene caused by administration of chemical substance: +
[1]; [13]
  Behavior of gene caused by administration of chemical substance: −
[1]; [14]
  Behavior of gene caused by administration of chemical substance: −
[1]; [15]
  Behavior of gene caused by administration of chemical substance: −
[1]; [16]
  Behavior of gene caused by administration of chemical substance: +
[1]; [17]
  Behavior of gene caused by administration of chemical substance: −
[1]; [18]
  Behavior of gene caused by administration of chemical substance: −
[1]; [19]
  Behavior of gene caused by administration of chemical substance: −
[1]; [20]
  Behavior of gene caused by administration of chemical substance: −
[1]; [21]
  Behavior of gene caused by administration of chemical substance: −
[1]; [22]
  Behavior of gene caused by administration of chemical substance: −
[1]; [23]
  Behavior of gene caused by administration of chemical substance: −
[1]; [24]
  Behavior of gene caused by administration of chemical substance: +
[1]; [25]
  Behavior of gene caused by administration of chemical substance: +
[1]; [26]
  Behavior of gene caused by administration of chemical substance: +
[1]; [27]
  Behavior of gene caused by administration of chemical substance: +
[1]; [28]
  Behavior of gene caused by administration of chemical substance: −
[1]; [29]
  Behavior of gene caused by administration of chemical substance: −
[1]; [30]
  Behavior of gene caused by administration of chemical substance: −
[1]; [31]
  Behavior of gene caused by administration of chemical substance: −
[1]; [32]
  Behavior of gene caused by administration of chemical substance: +
[1]; [33]
  Behavior of gene caused by administration of chemical substance: +
[1]; [34]
  Behavior of gene caused by administration of chemical substance: −
[1]; [35]
  Behavior of gene caused by administration of chemical substance: −
[2]; in vivo
  Carcinogenicity: C+
